Experimental data from patent US7932262B2 (Novartis AG, priority 2006, dated 2011).
Read-outs that look alike come from different tables or passages of the source.

Legend:
[1] = molecular target: T1, PDK1 kinase (Homo sapiens, UniProt O15530); test: PDK1 Kinase Alpha Screen Assay; type: biochemical; conditions: PDK1 Kinase Alpha Screen Assay; read-out: PDK1 IC50
T1 sequence (O15530 1-556): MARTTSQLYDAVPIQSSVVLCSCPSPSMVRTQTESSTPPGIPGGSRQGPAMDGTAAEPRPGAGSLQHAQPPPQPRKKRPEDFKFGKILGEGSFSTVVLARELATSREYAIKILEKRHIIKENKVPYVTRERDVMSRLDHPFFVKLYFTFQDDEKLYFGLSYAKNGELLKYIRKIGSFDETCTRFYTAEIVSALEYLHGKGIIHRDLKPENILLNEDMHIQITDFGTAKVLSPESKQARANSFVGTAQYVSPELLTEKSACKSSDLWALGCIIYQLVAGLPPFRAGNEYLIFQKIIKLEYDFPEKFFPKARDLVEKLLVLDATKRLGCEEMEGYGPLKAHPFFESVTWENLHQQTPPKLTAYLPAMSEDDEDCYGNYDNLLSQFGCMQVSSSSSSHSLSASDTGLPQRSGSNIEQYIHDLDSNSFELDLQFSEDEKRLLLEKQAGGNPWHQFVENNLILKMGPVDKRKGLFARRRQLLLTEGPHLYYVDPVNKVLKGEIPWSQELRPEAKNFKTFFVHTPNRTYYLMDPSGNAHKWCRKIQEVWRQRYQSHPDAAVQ
Method in brief: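 Detection used AlphaScreen: streptavidin donor and protein A acceptor beads (25 μg/ml each) bridged by a phospho-(Ser/Thr) PKA substrate antibody binding phosphorylated peptide. Reaction: biotin-PDK1-4 peptide (50 nM), ATP (10 uM), PDK1 in pH 7.5 Tris/MgCl2/DTT buffer, 3-18 hours, EDTA-stopped.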

[2] = tested on: PC3MM cells; test: Cell Proliferation Assay (Cell Titer Glo), PC3MM; type: cell-based; conditions: read-out: CPEC50 PC3MM
Protocol: IV. Cell Proliferation Assay Protocol:
A2780, PC-3, or PC3MM cells were seeded at 1000 cells/well in 100 μL/well (10.000 cells/mL) growth media in 96-well plates. Cells were allowed to adhere to the bottom of plates for 3-5 hours in a 37° C. 5% CO2 incubator. Compounds were dissolved in DMSO and then transferred to the cell plates. The cells were incubated with the compounds for 3 days in a 37° C. 5% CO2 incubator. The growth medium containing the compounds was then removed from the cells and fresh medium was added, followed by 100 μL of Cell Titer Glo assay reagent (Promega). This mixture was shaken for 1 minute and then incubated without shaking for 10 minutes. Activity determinations for the compounds were made by detection on a Trilux Instrument.

[3] = Cell Proliferation Assay, PC3MM
[4] = Cell Proliferation Assay, PC3MM cells

Compound	IC50 [1]	EC50 [2, 3]	EC50 [2, 4]	EC50 ([2]; cell proliferation, PC3MM cells)
CN1CCC(Oc2ccc3cnc(Nc4cc(C(N)=O)cc(-c5cnn(C)c5)c4)nc3c2)CC1 [Compound 660, 3-(1-methyl-1H-pyrazol-4-yl)-5-(7-(1-methylpiperidin-4-yloxy)quinazolin-2-ylamino)benzamide]	< 5 µM	< 5 µM		
COC(=O)Nc1cc(Nc2ncc3cc(-c4cn[nH]c4)c(OC4CCNCC4)cc3n2)cc(-c2cn[nH]c2)c1 [Compound 661, methyl 3-(7-(piperidin-4-yloxy)-6-(1H-pyrazol-4-yl)quinazolin-2-ylamino)-5-(1H-pyrazol-4-yl)phenylcarbamate]	< 5 µM	< 5 µM		
COC(=O)Nc1cc(Nc2ncc3cc(-c4nccs4)c(OC4CCNCC4)cc3n2)cc(-c2cn[nH]c2)c1 [Compound 662, methyl 3-(7-(piperidin-4-yloxy)-6-(thiazol-2-yl)quinazolin-2-ylamino)-5-(1H-pyrazol-4-yl)phenylcarbamate]	< 5 µM	< 5 µM		
NC(=O)c1cc(Nc2ncc3cc(-c4cn[nH]c4)cc(OC4CCNCC4)c3n2)cc(N2CCOCC2)c1 [Compound 663, 3-morpholino-5-(8-(piperidin-4-yloxy)-6-(1H-pyrazol-4-yl)quinazolin-2-ylamino)benzamide]	< 5 µM	5 to 10 µM		
O=C(c1cc(Nc2ncc3cc(-c4cn[nH]c4)cc(OC4CCNCC4)c3n2)cc(N2CCOCC2)c1)N1CCOCC1 [Compound 664, morpholino(3-morpholino-5-(8-(piperidin-4-yloxy)-6-(1H-pyrazol-4-yl)quinazolin-2-ylamino)phenyl)methanone]	< 5 µM	5 to 10 µM		
Cn1cc(-c2cc(Nc3ncc4cc(-c5cn[nH]c5)cc(OC5CCNCC5)c4n3)cc(C(N)=O)c2)cn1 [Compound 665, 3-(1-methyl-1H-pyrazol-4-yl)-5-(8-(piperidin-4-yloxy)-6-(1H-pyrazol-4-yl)quinazolin-2-ylamino)benzamide]	< 5 µM	5 to 10 µM		
C#Cc1cc(OC2CCNCC2)c2nc(Nc3cc(C(N)=O)cc(N4CCOCC4)c3)ncc2c1 [Compound 666, 3-(6-ethynyl-8-(piperidin-4-yloxy)quinazolin-2-ylamino)-5-morpholinobenzamide]	< 5 µM	5 to 10 µM		
C#Cc1cc(OC2CCNCC2)c2nc(Nc3cc(C(=O)N4CCOCC4)cc(N4CCOCC4)c3)ncc2c1 [Compound 667, (3-(6-ethynyl-8-(piperidin-4-yloxy)quinazolin-2-ylamino)-5-morpholinophenyl)(morpholino) methanone]	< 5 µM	< 5 µM		
C#Cc1cc(OC2CCNCC2)c2nc(Nc3cc(C(N)=O)cc(-c4cnn(C)c4)c3)ncc2c1 [Compound 668, 3-(6-ethynyl-8-(piperidin-4-yloxy)quinazolin-2-ylamino)-5-(1-methyl-1H-pyrazol-4-yl)benzamide]	< 5 µM	< 5 µM		
NC(=O)c1cc(Nc2ncc3cc(Br)cc(OC4CCNCC4)c3n2)cc(N2CCOCC2)c1 [Compound 669, 3-(6-bromo-8-(piperidin-4-yloxy)quinazolin-2-ylamino)-5-morpholinobenzamide]	< 5 µM	5 to 10 µM		
O=C(c1cc(Nc2ncc3cc(Br)cc(OC4CCNCC4)c3n2)cc(N2CCOCC2)c1)N1CCOCC1 [Compound 670, (3-(6-bromo-8-(piperidin-4-yloxy)quinazolin-2-ylamino)-5-morpholinophenyl)(morpholino) methanone]	< 5 µM	< 5 µM		
Cn1cc(-c2cc(Nc3ncc4cc(Br)cc(OC5CCNCC5)c4n3)cc(C(N)=O)c2)cn1 [Compound 671, 3-(6-bromo-8-(piperidin-4-yloxy)quinazolin-2-ylamino)-5-(1-methyl-1H-pyrazol-4-yl)benzamide]	< 5 µM	< 5 µM		
NC(=O)c1cc(Nc2ncc3cc(-c4nccs4)cc(OC4CCNCC4)c3n2)cc(N2CCOCC2)c1 [Compound 672, 3-morpholino-5-(8-(piperidin-4-yloxy)-6-(thiazol-2-yl)quinazolin-2-ylamino)benzamide]	< 5 µM	5 to 10 µM		
Cn1cc(-c2cc(Nc3ncc4cc(-c5nccs5)cc(OC5CCNCC5)c4n3)cc(C(N)=O)c2)cn1 [Compound 673, 3-(1-methyl-1H-pyrazol-4-yl)-5-(8-(piperidin-4-yloxy)-6-(thiazol-2-yl)quinazolin-2-ylamino)benzamide]	< 5 µM	5 to 10 µM		
NC(=O)c1cc(Nc2ncc3cc(-c4cn[nH]c4)c(OC4CCNCC4)cc3n2)cc(N2CCOCC2)c1 [Compound 674, 3-morpholino-5-(7-(piperidin-4-yloxy)-6-(1H-pyrazol-4-yl)quinazolin-2-ylamino)benzamide]	< 5 µM	5 to 10 µM		
NC(=O)c1cc(Nc2ncc3cc(-c4nccs4)c(OC4CCNCC4)cc3n2)cc(N2CCOCC2)c1 [Compound 675, 3-morpholino-5-(7-(piperidin-4-yloxy)-6-(thiazol-2-yl)quinazolin-2-ylamino)benzamide]	< 5 µM	5 to 10 µM		
COC(=O)Nc1cc(Nc2ncc3cc(-c4cn[nH]c4)c(OC4CCN(C)CC4)cc3n2)cc(-c2cn[nH]c2)c1 [Compound 676, methyl 3-(7-(1-methylpiperidin-4-yloxy)-6-(1H-pyrazol-4-yl)quinazolin-2-ylamino)-5-(1H-pyrazol-4-yl)phenylcarbamate]	< 5 µM	< 5 µM		
CN1CCC(Oc2cc3nc(Nc4cc(C(N)=O)cc(N5CCOCC5)c4)ncc3cc2-c2cn[nH]c2)CC1 [Compound 677, 3-(7-(1-methylpiperidin-4-yloxy)-6-(1H-pyrazol-4-yl)quinazolin-2-ylamino)-5-morpholinobenzamide]	< 5 µM	5 to 10 µM		
CN1CCC(Oc2cc3nc(Nc4cc(C(N)=O)cc(N5CCOCC5)c4)ncc3cc2-c2nccs2)CC1 [Compound 678, 3-(7-(1-methylpiperidin-4-yloxy)-6-(thiazol-2-yl)quinazolin-2-ylamino)-5-morpholinobenzamide]	< 5 µM	< 5 µM		
C#Cc1cc2cnc(Nc3cc(C(N)=O)cc(N4CCOCC4)c3)nc2cc1OC1CCNCC1 [Compound 679, 3-(6-ethynyl-7-(piperidin-4-yloxy)quinazolin-2-ylamino)-5-morpholinobenzamide]	< 5 µM	5 to 10 µM		
NC(=O)c1cc(Nc2ncc3cc(-c4cnoc4)c(OC4CCNCC4)cc3n2)cc(N2CCOCC2)c1 [Compound 680, 3-(6-(isoxazol-4-yl)-7-(piperidin-4-yloxy)quinazolin-2-ylamino)-5-morpholinobenzamide]	< 5 µM	5 to 10 µM		
CN1CCC(Oc2cc3nc(Nc4ccc5nc(C(F)(F)F)[nH]c5c4)ncc3cc2-c2nccs2)CC1 [Compound 681, 7-(1-methylpiperidin-4-yloxy)-6-(thiazol-2-yl)-N-(2-(trifluoromethyl)-1H-benzo[d]imidazol-6-yl)quinazolin-2-amine]	< 5 µM	5 to 10 µM		
COc1cc(Nc2ncc3cc(-c4nccs4)c(OC4CCNCC4)cc3n2)cc(-n2nnnc2C)c1 [Compound 682, N-(3-methoxy-5 (5-methyl-1H-tetrazol-1-yl)phenyl)-7-(piperidin-4-yloxy)-6-(thiazol-2-yl)quinazolin-2-amine]	< 5 µM	< 5 µM		
CC(=O)N1CCC(Oc2cc3nc(Nc4ccc(N5CCOCC5)cc4)ncc3cc2-c2nccs2)CC1 [Compound 690, 1-(4-(2-(4-morpholinophenylamino)-6-(thiazol-2-yl)quinazolin-7-yloxy)piperidin-1-yl)ethanone]	< 5 µM	< 5 µM		
COc1c(-c2cnn(CC(C)C)c2)ccc2cnc(Nc3cc(CN4CCOCC4)cc(NC(C)=O)c3)nc12 [Compound 715, N-(3-(7-(1-isobutyl-1H-pyrazol-4-yl)-8-methoxyquinazolin-2-ylamino)-5-(morpholinomethyl)phenyl)acetamide]	< 5 µM		< 5 µM	
COC(=O)Nc1cc(CN2CCOCC2)cc(Nc2ncc3ccc(-c4cnn(CCC(C)C)c4)c(OC)c3n2)c1 [Compound 716, methyl 3-(7-(1-isopentyl-1H-pyrazol-4-yl)-8-methoxyquinazolin-2-ylamino)-5-(morpholinomethyl)phenyl carbamate]	< 5 µM		< 5 µM	
NC(=O)c1ccccc1-c1ccc2cnc(Nc3ccc(S(N)(=O)=O)cc3)nc2c1 [Compound 784, 2-(2-(4-sulfamoylphenylamino)quinazolin-7-yl)benzamide]	< 5 µM			< 5 µM
